Measured values: patent publication US20250144067A1, “PERSONALIZED STARVATION THERAPY FOR CANCER” (Faeth Therapeutics, Inc., priority 2021, published 2025)
Where two headings read alike, the source gives them in different places.

Tests used:
[1] = system: NCI-H292 lung cancer cells; assay: FDA drug screening, complete media vs cholesterol-free media without statin (TABLE 1); format: cell-based, human
[2] = system: NCI-H292 lung cancer cells; assay: FDA drug screening, complete media vs cholesterol-free media with simvastatin (TABLE 2); format: cell-based, human
[3] = Complete minus Cholesterol-free, >0 enhanced anti-cancer activity, about 0 neutral, <0 antagonist
[4] = NCI-H292 cells, cholesterol-free media without statin
[5] = NCI-H292 cells, cholesterol-free media with simvastatin 0.04 μM, cell growth value in FDA drug screen
[6] = NCI-H292 cells, complete media, cell growth value in FDA drug screen
[7] = complete media minus cholesterol-free media + simvastatin, >0 enhanced anti-cancer activity, about 0 neutral, <0 antagonist
[8] = NCI-H292 cells, FDA drug library screen, cholesterol-free media with simvastatin 0.04 μM
[9] = complete media vs cholesterol-free media + simvastatin (0.04 μM), […]
[10] = NCI-H292 cells, cholesterol-free media without statin, FDA drug library screen
[11] = NCI-H292 cells, complete media, FDA drug library screen
[12] = NCI-H292 cells, drug in cholesterol-free media with simvastatin 0.04 μM
[13] = NCI-H292 cells, drug in complete media
[14] = complete media vs cholesterol-free media + simvastatin (0.04 μM), >0 enhanced anti-cancer activity, about 0 neutral, <0 antagonist
[15] = complete vs cholesterol-free media, >0 enhanced anti-cancer activity, about 0 neutral, <0 antagonist
[16] = NCI-H292 cells, FDA drug library screen, complete media
[17] = Complete minus Cholesterol-free, greater than 0 enhanced anti-cancer activity, about 0 neutral, below 0 antagonists
[18] = NCI-H292 cells in cholesterol-free media without statin
[19] = NCI-H292 cells in complete media
[20] = NCI-H292 cells, FDA library drug in cholesterol-free media with simvastatin 0.04 μM
[21] = NCI-H292 cells, FDA library drug in complete media

C[C@@H](O[C@H]1OCCN(Cc2n[nH]c(=O)[nH]2)[C@H]1c1ccc(F)cc1)c1cc(C(F)(F)F)cc(C(F)(F)F)c1 [Aprepitant]
Difference [1, 3]: −0.20 | Cholesterol-free [1, 4]: 0.998 | Complete ([1]; NCI-H292 cells, complete media): 0.7992 | Cholesterol-free media + simvastatin (0.04 μM) [2, 5]: 1.036 | Complete Media [2, 6]: 1.144 | Difference [2, 7]: 0.11

COC(=O)c1cc(OC)c2c(c1-c1c(C(=O)OC)cc(OC)c3c1OCO3)OCO2 [Bifendate]
Cholesterol-free [1, 4]: 1.494 | Complete ([1]; NCI-H292 cells, complete media): 1.156 | Difference ([1]; complete vs cholesterol-free media, […]): −0.34 | Cholesterol-free media + simvastatin (0.04 μM) [2, 8]: 1.269 | Difference [2, 9]: −0.10

CCCCC[C@H](O)CC[C@@H]1[C@H]2Cc3cccc(OCC(=O)O)c3C[C@H]2C[C@H]1O [Treprostinil (sodium)]
Difference [1, 3]: −0.02 | Cholesterol-free [1, 10]: 1.017 | Complete [1, 11]: 0.9998 | Cholesterol-free media + simvastatin (0.04 μM) [2, 12]: 1.119 | Complete Media [2, 13]: 0.898 | Difference [2, 14]: −0.22

NC(=O)OCC(COC(N)=O)c1ccccc1 [Felbamate]
Cholesterol-free [1, 10]: 0.9609 | Complete [1, 11]: 1.103 | Difference [1, 15]: 0.14 | Cholesterol-free media + simvastatin (0.04 μM) [2, 12]: 1.169 | Complete Media [2, 13]: 0.9237 | Difference [2, 14]: −0.25

Cc1ccc(NC(=O)c2ccc(CN3CCN(C)CC3)cc2)cc1Nc1nccc(-c2cccnc2)n1 [Imatinib]
Cholesterol-free [1, 4]: 1.28 | Complete ([1]; NCI-H292 cells, complete media): 0.9175 | Difference ([1]; complete vs cholesterol-free media, greater than 0 enhanced anti-cancer activity, about 0 neutral, below 0 antagonists): −0.36 | Cholesterol-free media + simvastatin (0.04 μM) ([2]; NCI-H292 cells, cholesterol-free media with simvastatin 0.04 μM, FDA drug library screen (TABLE 2)): 1.214 | Complete Media ([2]; NCI-H292 cells, complete media, FDA drug library screen (TABLE 2)): 1.199 | Difference ([2]; complete media minus cholesterol-free media + simvastatin (0.04 μM), >0 enhanced anti-cancer activity, about 0 neutral, <0 antagonist): −0.01

NCC1(CC(=O)O)CCCCC1 [Gabapentin]
Difference ([1]; Complete minus Cholesterol-free, […]): −0.30 | Cholesterol-free [1, 4]: 1.237 | Complete ([1]; NCI-H292 cells, complete media): 0.9357 | Cholesterol-free media + simvastatin (0.04 μM) [2, 8]: 1.126 | Complete Media [2, 16]: 1.036 | Difference [2, 9]: −0.09

OC[C@H]1O[C@@H](c2ccc(F)c(Cc3cc4ccccc4s3)c2)[C@H](O)[C@@H](O)[C@@H]1O [Ipragliflozin]
Difference [1, 17]: −0.87 | Cholesterol-free [1, 18]: 1.769 | Complete [1, 19]: 0.8999 | Cholesterol-free media + simvastatin (0.04 μM) [2, 5]: 0.8889 | Complete Media [2, 6]: 0.9547 | Difference [2, 7]: 0.07

C[C@@H]1CC(=O)NN=C1c1ccc(NN=C(C#N)C#N)cc1 [Levosimendan]
Difference [1, 3]: −0.06 | Cholesterol-free [1, 10]: 1.195 | Complete [1, 11]: 1.131 | Cholesterol-free media + simvastatin (0.04 μM) [2, 8]: 1.165 | Complete Media [2, 16]: 1.044 | Difference [2, 14]: −0.12

COc1ccc2cc1Oc1ccc(cc1)C[C@H]1c3cc(c(OC)cc3CCN1C)Oc1c(OC)c(OC)cc3c1[C@H](C2)N(C)CC3 [Tetrandrine]
Cholesterol-free [1, 10]: 0.9522 | Complete [1, 11]: 1.143 | Difference [1, 15]: 0.19 | Cholesterol-free media + simvastatin (0.04 μM) [2, 12]: 1.133 | Complete Media [2, 13]: 0.9661 | Difference [2, 14]: −0.17

Cc1ccccc1C(=O)Nc1ccc(C(=O)N2CCCC(N(C)C)c3ccccc32)cc1 (centres unmarked) [Mozavaptan]
Difference [1, 3]: −0.20 | Cholesterol-free [1, 4]: 0.8282 | Complete ([1]; NCI-H292 cells, complete media): 0.6332 | Cholesterol-free media + simvastatin (0.04 μM) [2, 20]: 1.121 | Complete Media [2, 21]: 0.8375 | Difference [2, 14]: −0.28

CCCc1c2oc(C(=O)O)cc(=O)c2cc2c(=O)cc(C(=O)O)n(CC)c12 [Nedocromil]
Cholesterol-free [1, 10]: 1.678 | Complete [1, 11]: 1.893 | Difference [1, 15]: 0.22 | Cholesterol-free media + simvastatin (0.04 μM) [2, 20]: 1.951 | Complete Media [2, 21]: 1.336 | Difference [2, 14]: −0.61

CC(C)(C)c1cc(C(C)(C)C)c(NC(=O)c2c[nH]c3ccccc3c2=O)cc1O [Ivacaftor]
Difference ([1]; Complete minus Cholesterol-free, greater than 0 enhanced anti-cancer activity, about 0 neutral, below 0 antagonist): −0.10 | Cholesterol-free ([1]; NCI-H292 cells, FDA drug library screen, cholesterol-free media without statin): 0.9826 | Complete [1, 16]: 0.878 | Cholesterol-free media + simvastatin (0.04 μM) [2, 8]: 1.021 | Complete Media [2, 16]: 0.931 | Difference [2, 14]: −0.09

Cl.NC(CO)(CO)CO [Trometamol (hydrochloride)]
Cholesterol-free [1]: 0.9218 | Complete [1]: 0.6947 | Difference [1]: −0.23 | Cholesterol-free media + simvastatin (0.04 μM) [2]: 1.673 | Complete Media [2]: 1.379 | Difference [2]: −0.29

O=C(O)CCNC(=O)c1ccccc1 [Betamipron]
Difference [1, 17]: −1.00 | Cholesterol-free [1, 18]: 1.952 | Complete [1, 19]: 0.9561 | Cholesterol-free media + simvastatin (0.04 μM) [2, 5]: 0.7936 | Complete Media [2, 6]: 0.9075 | Difference [2, 7]: 0.11
